The values that follow come from patent US6495673B1, “Method for isolating the DNA encoding an enzyme” (Medical Research Council, priority 1996, dated 2002).

No end group written: not given here. *: point of attachment. Biotin = O=C1N[C@H]2[C@H](CS[C@H]2CCCCC(=O)*)N1 A value given as a limit tells only on which side of the number the result lay.

By Kd is commonly meant the constant that tells how readily two partners part at equilibrium.

Assay [1] deals with T1, calmodulin-tagged phage DN323 (Homo sapiens, UniProt P0DP23).
T1 construct: made in house; host or cells: E. coli (phage production)
The experiment in a line: Competition assay of (calmodulin-tagged phage)/(biotin-peptide) complex with 1000-fold excess unlabeled peptide, ELISA. Format: binding. Particulars: 1000-fold molar excess of non-biotinylated peptide. The method, then:
A 10^−8 M solution of a biotinylated calmodulin-binding peptide ([…] or […]; Montigiani et al., 1996) was added to calmodulin-tagged phage preparations (10^12 transforming units/ml) in TBSC and incubated for 10 minutes. To the resulting mixture, aliquoted in different tubes, unlabeled […] peptide in 1000-fold molar excess (10^−5 M) was added at different times. The fraction of phage particles in which the biotinylated peptide had been replaced by the unlabeled peptide was then determined by ELISA as described above.
The results of a competition assay of (calmodulin-tagged phage DN323)/(biotin-peptide) complex with a 1000-fold molar excess of non-biotinylated calmodulin-binding peptide, detected by ELISA are illustrated in FIG. 5. Squares: […]; circles, CAAARAXKNFIAVSAANRFKKIS.

The target of the next assay is calmodulin (Homo sapiens, UniProt P0DP23). Particulars: cited from earlier work.
The subject of assay [2] is LUCK+ peptide substrate / GST-SH2 fusion. The experiment in a line: Selection of lck tyrosine kinase phage by capture of phosphorylated peptide on GST-SH2. It counts as biochemical, murine. Particulars: LUCK- peptide instead of LUCK+, all three phages. The method, then:
As affinity capture reagent a GST-fusion of the N-terminal SH2 domain of PI 3-kinase was used, subcloned in pGEX vector (Pharmacia) and affinity-purified on glutathione agarose. The GST-SH2 fusion was coated on Nunc Immunotubes (4 ml; 100 μg/ml in PBS) at room temperature overnight. The tubes were then washed and incubated for 2 hours with 3% BSA in phosphorylation buffer (30 mM HEPES, pH 7.4, 150 mM NaCl, 12 mM MgCl2, 1 mM sodium vanadate, 1 mM CaCl2).
ATP was then added to a final concentration of 100 μM. After one minute, the mixtures were loaded onto separate GST-SH2-coated immunotubes and incubated for 30 minutes. The tubes were then washed 10 times with TBS +1 mM CaCl2 (TBSC) +0.1% Tween-20 and 10 times with TBSC. The phage bound to the tube via the phosphorylated peptide was specifically eluted with 1 ml 10 mM EGTA in PBS (Neri et al., 1995) that causes dissociation of the peptide ligand from calmodulin present in the fusion protein presented on the phage.
The eluted phage was used to infect exponentially growing TG1 E. coli cells according to standard procedures (Nissim et al., 1994), then plated on selective ampicillin-glucose-TY plates. Ampicillin-resistant transformants were counted and used to calculate the titre of the phage recovered in the selection procedure.

Assay [3] deals with T1, calmodulin-tagged phage DN323. The experiment in a line: Stability of (calmodulin-tagged phage)/peptide complex to PEG precipitation, ELISA. It counts as binding. Particulars: 20% PEG 6000 + 2.5M NaCl, 1 hour on ice. As for the experimental part:
Stability of (calmodulin-tagged phage)/peptide complexes to PEG precipitation was checked as follows. A 10^−8M solution (final concentration) of a biotinylated calmodulin-binding peptide […] was added to 1 ml of calmodulin-tagged phage (10^12 transforming unit/ml) in TBSC and incubated for 10 minutes. To this solution, 20% polyethyleneglycol (Mw6000) +2.5M NaCl was added (200 μl ) and the resulting mixture was incubated on ice for 1 hour, then centrifuged on a bench centrifuge (13,000 rpm; 5 minutes).
The pellet was resuspended in 1 ml of TBSC. The titre of the phage solutions before and after PEG precipitation were then determined. The fraction of phage particles that were still peptide-bound after the PEG precipitation procedure was evaluated by ELISA, using a streptavidin-coated plate (see above).
The difference in ELISA binding activity between the sample before (1) and after (2) PEG precipitation corresponds to a small loss in phage titre, as determined by E. coli infection and titration. In sample 3, 2% milk in TBSC was used instead of phage.
Background: In an ELISA, binding on a coated surface is turned into a signal by an enzyme label.

Turning to CAAARWKKAFIAVSAANRFKKIS, in assay [1], the koff is recorded as < 10^−1 s^−1 and the “time for which complex with calmodulin-tagged phage is stable” value is given as “more than 2 hours”. The Kd on calmodulin is 2.2 pM.
As for EPQFEEIGAARWKKAFIAVSNMFKKIS [LUCK-], the phage titres recovered result in assay [2] is given as “low phage titres”.
Take Biotin-CAAARWKKAFIAVSAANRFKKIS: the “stability of calmodulin/peptide complex upon PEG precipitation” value in assay [3] is reported as “stable even after PEG precipitation”.
